Laboratory results taken from PubChem BioAssay AID192 (DTP/NCI, 2004).
Several values for one entry are separate records, joined by “and”; a condition that tells them apart may be missing. Equal values may be shown once. Inconclusive results and toxic doses are left out. Peptide text beside a SMILES is read from it. * marks the point of attachment. Cbz = O=C(OCc1ccccc1)*

System: BDF1 mice, B16 melanoma ip, median survival T/C
Experiment: NCI In Vivo Anticancer Drug Screen. Data for tumor model B16 Melanoma (intraperitoneal) in B6D2F1 (BDF1) mice
Conditions: endpoint: median survival time, higher = longer survival
Summary of the method: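 The ratio T/C compares compound-treated mice with vehicle-treated controls, using survival or tumor size as the endpoint in a transplantable tumor model.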

[1] = dose: 0.5 mg/kg/injection, schedule: Q01DX009 (ip), vehicle: saline
[2] = dose: 50.0 mg/kg/injection, schedule: Q01DX009 (ip), vehicle: saline with Tween-80
[3] = dose: 100.0 mg/kg/injection, schedule: Q01DX009 (ip), vehicle: saline with Tween-80
[4] = dose: 200.0 mg/kg/injection, schedule: Q01DX009 (ip), vehicle: saline with Tween-80
[5] = dose: 12.5 mg/kg/injection, schedule: Q04DX003 (ip), vehicle: saline
[6] = dose: 25.0 mg/kg/injection, schedule: Q04DX003 (ip), vehicle: saline
[7] = dose: 50.0 mg/kg/injection, schedule: Q04DX003 (ip), vehicle: saline
[8] = dose: 25.0 mg/kg/injection, schedule: Q01DX009 (ip), vehicle: saline
[9] = dose: 50.0 mg/kg/injection, schedule: Q01DX009 (ip), vehicle: saline
[10] = dose: 100.0 mg/kg/injection, schedule: Q01DX009 (ip), vehicle: saline
[11] = dose: 200.0 mg/kg/injection, schedule: Q01DX009 (ip), vehicle: saline
[12] = dose: 12.5 mg/kg/injection, schedule: Q01DX009 (ip), vehicle: saline
[13] = dose: 12.5 mg/kg/injection, schedule: Q01DX009 (ip), vehicle: Klucel (hydroxypropylcellulose) (HPC)
[14] = dose: 25.0 mg/kg/injection, schedule: Q01DX009 (ip), vehicle: Klucel (hydroxypropylcellulose) (HPC)
[15] = dose: 50.0 mg/kg/injection, schedule: Q01DX009 (ip), vehicle: Klucel (hydroxypropylcellulose) (HPC)
[16] = dose: 25.0 mg/kg/injection, schedule: Q01DX009 (ip), vehicle: saline with Tween-80
[17] = dose: 100.0 mg/kg/injection, schedule: Q01DX009 (ip), vehicle: Klucel (hydroxypropylcellulose) (HPC)
[18] = dose: 1.25 mg/kg/injection, schedule: Q01DX009 (ip), vehicle: saline
[19] = dose: 6.25 mg/kg/injection, schedule: Q01DX009 (ip), vehicle: saline with Tween-80
[20] = dose: 12.5 mg/kg/injection, schedule: Q01DX009 (ip), vehicle: saline with Tween-80

Structure (SMILES): CC[C@](C)(O)C(=O)O[C@H]1C(=O)O[C@@H]2C[C@H]3C(C)=CC(=O)[C@@H](O)[C@]3(C)[C@H]3[C@@]4(O)OC[C@]32[C@@H]1[C@@H](C)[C@H]4O
- T/C (dose: 0.13 mg/kg/injection, schedule: Q01DX009 (ip), vehicle: Klucel (hydroxypropylcellulose) (HPC)): 110 % of control
- T/C (dose: 0.13 mg/kg/injection, schedule: Q01DX009 (ip), vehicle: steriod suspending solution): 108 % of control
- T/C (dose: 0.25 mg/kg/injection, schedule: Q01DX009 (ip), vehicle: Klucel (hydroxypropylcellulose) (HPC)): 107 % of control
- T/C (dose: 0.25 mg/kg/injection, schedule: Q01DX009 (ip), vehicle: saline): 121 % of control
- T/C (dose: 0.25 mg/kg/injection, schedule: Q01DX009 (ip), vehicle: steriod suspending solution): 122 % of control
- T/C (dose: 0.5 mg/kg/injection, schedule: Q01DX009 (ip), vehicle: Klucel (hydroxypropylcellulose) (HPC)): 114 % of control
- T/C [1]: 154 % of control
- T/C (dose: 1.0 mg/kg/injection, schedule: Q01DX009 (ip), vehicle: steriod suspending solution): 114 % of control
- T/C (dose: 125.0 micrograms/kg/injection, schedule: Q01DX009 (ip), vehicle: saline with Tween-80): 121 % of control
- T/C (dose: 250.0 micrograms/kg/injection, schedule: Q01DX009 (ip), vehicle: saline with Tween-80): 112 % of control
- T/C (dose: 500.0 micrograms/kg/injection, schedule: Q01DX009 (ip), vehicle: saline with Tween-80): 121 % of control

Structure (SMILES): O=C(NC(Cc1ccccc1)C(=O)N1CCCC1C(=O)O)OCc1ccccc1 (stereo not drawn) (Cbz-Phe-Pro-OH; configuration not given here)
- T/C [2]: 99 % of control
- T/C [3]: 99 % of control
- T/C [4]: 91 % of control

Structure (SMILES): CC(NC(=O)c1ccccc1)C(=O)NC(CSC(c1ccccc1)c1ccccc1)C(=O)O (centres undefined)
- T/C [5]: 107 % of control
- T/C [6]: 110 % of control
- T/C [7]: 89 % of control

Structure (SMILES): Nc1nc2n[nH]nc2c(=O)[nH]1
- T/C [8]: 108 % of control
- T/C [9]: 108 % of control
- T/C [10]: 113 % of control
- T/C [11]: 111 % of control

Structure (SMILES): O=C(CCCN1CCN(c2ccccc2)CC1)c1ccc(F)cc1
- T/C [12]: 112 % of control
- T/C [8]: 115 % of control
- T/C [9]: 107 % of control
- T/C [10]: 102 % of control
- T/C [11]: 100 % of control

Structure (SMILES): CC1(S)CCC2CC1C2(C)C (centres undefined)
- T/C [13]: 94 % of control
- T/C [14]: 94 % of control
- T/C [15]: 89 % of control

Structure (SMILES): CN(C)CCCN1c2ccccc2S(=O)c2ccc(Cl)cc21 (centres undefined)
- T/C [12]: 97 % of control
- T/C [8]: 100 % of control
- T/C [9]: 108 % of control
- T/C [10]: 94 % of control

Structure (SMILES): O=[N+]([O-])/C=C\c1ccc2c(c1)OCO2
- T/C (dose: 22.0 mg/kg/injection, schedule: Q01DX009 (ip), vehicle: Klucel (hydroxypropylcellulose) (HPC)): 96 % of control
- T/C (dose: 33.0 mg/kg/injection, schedule: Q01DX009 (ip), vehicle: Klucel (hydroxypropylcellulose) (HPC)): 108 % of control
- T/C [15]: 96 % of control
- T/C (dose: 75.0 mg/kg/injection, schedule: Q01DX009 (ip), vehicle: Klucel (hydroxypropylcellulose) (HPC)): 100 % of control

Structure (SMILES): CCCCOC(=O)c1ccc(NC(=O)Nc2ccccc2)cc1
- T/C [16]: 93 % of control
- T/C [2]: 98 % of control
- T/C [3]: 93 % of control

Structure (SMILES): C1CCc2nnnn2CC1
- T/C (dose: 1.56 mg/kg/injection, schedule: Q04DX003 (ip), vehicle: saline): 111 % of control
- T/C (dose: 3.12 mg/kg/injection, schedule: Q01DX009 (ip), vehicle: saline): 113 % of control
- T/C (dose: 3.12 mg/kg/injection, schedule: Q04DX003 (ip), vehicle: saline): 110 % of control
- T/C (dose: 6.25 mg/kg/injection, schedule: Q01DX009 (ip), vehicle: saline): 102 % of control
- T/C (dose: 6.25 mg/kg/injection, schedule: Q04DX003 (ip), vehicle: saline): 106 % of control
- T/C [12]: 102 % of control
- T/C [5]: 103 % of control
- T/C [8]: 88 % of control
- T/C [6]: 103 % of control and 111 % of control
- T/C [7]: 105 % of control

Structure (SMILES): Nc1cc2nc3ccccc3sc-2cc1=O
- T/C [2]: 93 % of control
- T/C [3]: 98 % of control
- T/C [4]: 94 % of control

Structure (SMILES): COc1cc(C(O)C(Cl)(Cl)Cl)ccc1O (centres undefined)
- T/C (dose: 100.0 mg/kg/injection, schedule: Q01DX009 (ip), vehicle: other): 94 % of control
- T/C (dose: 200.0 mg/kg/injection, schedule: Q01DX009 (ip), vehicle: other): 91 % of control

Structure (SMILES): CCC[CH2][Ge]([Cl])([Cl])[CH2]CCC
- T/C [13]: 100 % of control
- T/C [14]: 90 % of control

Structure (SMILES): OC1COCOC1 (tested in a mixture with another compound)
- T/C [10]: 115 % of control
- T/C [11]: 106 % of control
- T/C (dose: 400.0 mg/kg/injection, schedule: Q01DX009 (ip), vehicle: saline): 106 % of control

Structure (SMILES): CC(C(=O)O)C(NC(=O)OCc1ccccc1)C(=O)O (centres undefined)
- T/C (dose: 100.0 mg/kg/injection, schedule: Q04DX003 (ip), vehicle: other): 97 % of control
- T/C (dose: 200.0 mg/kg/injection, schedule: Q04DX003 (ip), vehicle: other): 89 % of control

Structure (SMILES): O=C(Oc1ccc(-c2ccc(Br)cc2)cc1)c1ccco1
- T/C [2]: 88 % of control

Structure (SMILES): Oc1ccc(/C=N\Nc2ccccn2)c(O)c1
- T/C [13]: 90 % of control
- T/C [14]: 102 % of control
- T/C [15]: 98 % of control
- T/C [17]: 115 % of control
- T/C (dose: 200.0 mg/kg/injection, schedule: Q01DX009 (ip), vehicle: Klucel (hydroxypropylcellulose) (HPC)): 124 % of control

Structure (SMILES): NC(=O)c1[nH]nc(C2OC(CO)C(O)C2O)c1O (centres undefined)
- T/C (dose: 0.08 mg/kg/injection, schedule: Q01DX009 (ip), vehicle: saline): 100 % of control
- T/C (dose: 0.12 mg/kg/injection, schedule: Q01DX009 (ip), vehicle: saline): 110 % of control
- T/C (dose: 0.16 mg/kg/injection, schedule: Q01DX009 (ip), vehicle: saline): 111 % of control
- T/C (dose: 0.31 mg/kg/injection, schedule: Q01DX009 (ip), vehicle: saline): 111 % of control
- T/C [1]: 115 % of control
- T/C (dose: 0.62 mg/kg/injection, schedule: Q01DX009 (ip), vehicle: saline): 111 % of control
- T/C (dose: 0.67 mg/kg/injection, schedule: Q01DX009 (ip), vehicle: saline): 123 % of control
- T/C [18]: 94 % of control
- T/C (dose: 2.16 mg/kg/injection, schedule: Q01DX004 (ip), vehicle: saline): 113 % of control
- T/C (dose: 3.6 mg/kg/injection, schedule: Q01DX004 (ip), vehicle: saline): 112 % of control
- T/C (dose: 6.0 mg/kg/injection, schedule: Q01DX004 (ip), vehicle: saline): 109 % of control
- T/C (dose: 10.0 mg/kg/injection, schedule: Q01DX004 (ip), vehicle: saline): 44 % of control

Structure (SMILES): COC(=Nc1ccccc1)SSC(C)C
- T/C [19]: 113 % of control
- T/C [20]: 108 % of control
- T/C [16]: 102 % of control
- T/C [2]: 100 % of control
- T/C [3]: 97 % of control

Structure (SMILES): Cc1c(Cl)cccc1NS(=O)(=O)c1cccc([N+](=O)[O-])c1
- T/C [2]: 100 % of control
- T/C [3]: 91 % of control
- T/C [4]: 98 % of control

Structure (SMILES): CCCCNC1=C(N2CC2)C(=O)C(NCCCC)=C(N2CC2)C1=O
- T/C [18]: 113 % of control
- T/C (dose: 2.5 mg/kg/injection, schedule: Q01DX009 (ip), vehicle: saline): 112 % of control

Structure (SMILES): CCC1=C(c2cc(Cl)c3ccccc3c2OCC(=O)O)OC(CC)(C(=O)c2cc(Cl)c3ccccc3c2OCC(=O)O)CC1 (centres undefined)
- T/C [14]: 102 % of control
- T/C (dose: 30.0 mg/kg/injection, schedule: Q01DX009 (ip), vehicle: saline with Tween-80): 90 % of control
- T/C [15]: 102 % of control
- T/C (dose: 60.0 mg/kg/injection, schedule: Q01DX009 (ip), vehicle: saline with Tween-80): 93 % of control
- T/C [17]: 102 % of control
- T/C (dose: 100.0 mg/kg/injection, schedule: Q04DX003 (ip), vehicle: saline with Tween-80): 110 % of control
- T/C (dose: 120.0 mg/kg/injection, schedule: Q01DX009 (ip), vehicle: saline with Tween-80): 93 % of control
- T/C (dose: 200.0 mg/kg/injection, schedule: Q04DX003 (ip), vehicle: saline with Tween-80): 95 % of control
- T/C (dose: 240.0 mg/kg/injection, schedule: Q01DX009 (ip), vehicle: saline with Tween-80): 86 % of control

Structure (SMILES): O=C(CNC(=O)Nc1ccc(C2=NCCN2)cc1)Nc1ccc(C2=NCCN2)cc1
- T/C [19]: 97 % of control
- T/C [20]: 100 % of control
- T/C [16]: 97 % of control

Structure (SMILES): CCCCCCCCCCCC(O)CCCC (centres undefined)
- T/C (dose: 6.25 mg/kg/injection, schedule: Q01DX009 (ip), vehicle: Klucel (hydroxypropylcellulose) (HPC)): 99 % of control
- T/C [13]: 104 % of control
